“Also recorded” adds a separate entry of the source. Read-outs that look alike come from different tables or passages of the source.
How the values were obtained:
NRP-1 [1] = molecular target: T1, NRP-1 (Homo sapiens, UniProt O14786); conditions: peptide alone, cited from earlier work
Experimental: In the nano AGuIX platform tested, firstly, DOTA was chelated with Gd or Tb, and secondly, a targeted peptide recognizing neuropilin 1 (NRP-1) coupled to RB (i.e., K(RB)DKPPR) was conjugated to the surface of AGuIX NPs. […] In K(RB)DKPPR, conjugation via a maleimide function enhanced the affinity constant to the order of nM. Finally, NPs were tested in vitro on U-251 MG cells, derived from a human glioblastoma multiforme, using an anchorage-dependent clonogenic assay. […] An increase in SOSG fluorescence signal was observed confirming ^1O2 production, which was inhibited by the addition of NaN3 in the reaction mixture (Figure 11).

[2] = in ethanol; cited from earlier work
Text: RB is a xanthene PS [22] derived from fluorescein (Figure 1a) with interesting photophysical and sonosensitive properties. For example, Nonaka et al. used sonodynamic therapy (SDT) with RB and focused ultra-sound to treat experimental intracranial glioma in rats. […] RB photoactivation can be used for external application on the body, such as wound sealing or ...

RB fluorescence lifetime = type: physicochemical; conditions: D2O, λexc = 470 nm
Experimental: The Ln luminescence lifetime is recorded after excitation at 545 nm for Tb and 313 nm for Gd. The fluorescence lifetime of RB is recorded after excitation at 470 nm ( τf470 ). ^1O2 emission spectra are obtained after excitation at 558 nm (maximum absorption wavelength of RB) but also after excitation at 351 nm for Tb and 273 nm for Gd.
(§1) Absorption spectra were recorded on a UV-3600 UV–visible double beam spectrophotometer (Shimadzu, Marne-La-Vallée, France). Fluorescence spectra were recorded on a Fluorolog FL3-222 spectrofluorimeter (Horiba Jobin Yvon, Palaiseau, France) equipped with a 450 W Xenon lamp and thermostated cell compartment (25 °C), a UV–visible photomultiplier R928 (Hamamatsu Photonics, Hamamatsu, Japan) and an InGaAs infrared detector (DSS-16A020L Electro-Optical System Inc, Phoenixville, PA, USA). The excitation beam was diffracted by a double ruled grating SPEX monochromator (1200 grooves/mm blazed at 330 nm). The emission beam was diffracted by a double ruled grating SPEX monochromator (1200 grooves/mm blazed at 500 nm). Singlet oxygen emission was detected through a double ruled grating SPEX monochromator (600 grooves/mm blazed at 1 µm) and a long-wave pass (780 nm). All spectra were measured in four-face quartz vials.

[3] = Singlet oxygen production quantum yield; type: physicochemical; conditions: D2O, reference Eosin Y; for ^1O2 quantum yield ΦΔ558: λexc = 558 nm
[4] = Fluorescence quantum yield; type: physicochemical; conditions: D2O, λexc = 558 nm; reference tetraphenylporphyrin
Experimental: as §1
The fluorescence quantum yield (Φf) is calculated using Equation (6).(6) Φf=Φf0 . If/If0.OD0/OD. (n/n0)^2 where Φf and Φf0, If and If0, OD and OD0, n and n0 are the quantum yields, fluorescence intensities, optical densities, and refractive indices of the sample and reference, respectively.
Tetraphenylporphyrin (TPP) was chosen as the fluorescence reference standard (Φf0 = 0.11, toluene).

Zeta potential = type: physicochemical; conditions: DLS, Zetasizer Nano-Z, He-Ne 633 nm; pH 7.2 mentioned; listed as AGuIX Ln@Mal-K(RB)DKPPR (Ln = Gd)
Experimental: The zeta potential (ξ) for each NPs was determined using Zetasizer Nano-Z (Malvern, UK) equipped with a He-Ne laser at 633 nm.

Ln luminescence lifetime = type: physicochemical; conditions: D2O, λexc/λdetection = 273/313 nm
U-251 MG cells = experiment: Anchorage-dependent clonogenic assay with X-ray irradiation; type: cell-based, human; conditions: [RB] = 1 µM, 24 h, X-ray 2 Gy (320 kV, 10 mA, 3 Gy/min), clones after 7 days; fraction of untreated non-irradiated cells; mean, triplicates from 3 experiments (n = 9)
[5] = Hydrodynamic size by TDA-ICP-MS; type: physicochemical; conditions: Table 4, listed as AGuIX Ln@Mal-K(RB)DKPPR (Ln = Gd)
Experimental: TDA experiments were conducted using a TDA-ICP-MS hyphenation between a Sciex P/ACE MDQ instrument and a 7700 Agilent ICP-MS. Fused silica capillaries with an inner diameter of 75 µm and outer diameter of 375 µm, and a total length of 64 cm, were coated with hydroxypropylcellulose (HPC) using a solution of 0.05 g mL^−1 in water. Detection was carried out by ICP-MS at m/z = 158 and m/z = 159 for Gd and Tb detection, respectively. Samples were hydrodynamically injected (0.3psi for 3 s), then mobilized using Tris 10 mM and NaCl 125 mM at 0.7 psi. Between runs, the capillary was flushed at 5 psi for 5 min with the mobilization medium. All measurements were performed at least in duplicates.
The detected peak was fitted by a sum of Gaussian distributions using Origin 8.5 software, according to Equation (8).(8) St=∑i=12Ai/σi 2πexp−t−t0^2/2σi2 where t0 is the peak residence time, and […] are the area under the curve and the temporal variance associated with each species i, respectively.
Under these experimental conditions, the molecular diffusion coefficient D is given by(9) D=Rc2t0/24σ^2=2kBT/6πηDh where Rc is the capillary radius, kB is the Boltzmann constant, T is the temperature, η is the viscosity, and Dh is the hydrodynamic diameter of the solute.
Therefore, using Equation (9), the hydrodynamic diameters can be calculated from the temporal variances measured from the fitted Taylorgram.

NRP-1 [6] = molecular target: T1, NRP-1; experiment: NRP-1 binding, competitive assay; conditions: conjugated via maleimide on AGuIX NPs
Experimental: The affinity of AGuIX Ln@Mal-K(RB) and AGuIX Ln@Mal-K(RB)DKPPR to NRP-1 was determined as previously described in terms of IC50 in another study.

[7] = listed as AGuIX Ln@Mal-K(RB)DKPPR (Ln = Gd)

T1 sequence (O14786 22-923): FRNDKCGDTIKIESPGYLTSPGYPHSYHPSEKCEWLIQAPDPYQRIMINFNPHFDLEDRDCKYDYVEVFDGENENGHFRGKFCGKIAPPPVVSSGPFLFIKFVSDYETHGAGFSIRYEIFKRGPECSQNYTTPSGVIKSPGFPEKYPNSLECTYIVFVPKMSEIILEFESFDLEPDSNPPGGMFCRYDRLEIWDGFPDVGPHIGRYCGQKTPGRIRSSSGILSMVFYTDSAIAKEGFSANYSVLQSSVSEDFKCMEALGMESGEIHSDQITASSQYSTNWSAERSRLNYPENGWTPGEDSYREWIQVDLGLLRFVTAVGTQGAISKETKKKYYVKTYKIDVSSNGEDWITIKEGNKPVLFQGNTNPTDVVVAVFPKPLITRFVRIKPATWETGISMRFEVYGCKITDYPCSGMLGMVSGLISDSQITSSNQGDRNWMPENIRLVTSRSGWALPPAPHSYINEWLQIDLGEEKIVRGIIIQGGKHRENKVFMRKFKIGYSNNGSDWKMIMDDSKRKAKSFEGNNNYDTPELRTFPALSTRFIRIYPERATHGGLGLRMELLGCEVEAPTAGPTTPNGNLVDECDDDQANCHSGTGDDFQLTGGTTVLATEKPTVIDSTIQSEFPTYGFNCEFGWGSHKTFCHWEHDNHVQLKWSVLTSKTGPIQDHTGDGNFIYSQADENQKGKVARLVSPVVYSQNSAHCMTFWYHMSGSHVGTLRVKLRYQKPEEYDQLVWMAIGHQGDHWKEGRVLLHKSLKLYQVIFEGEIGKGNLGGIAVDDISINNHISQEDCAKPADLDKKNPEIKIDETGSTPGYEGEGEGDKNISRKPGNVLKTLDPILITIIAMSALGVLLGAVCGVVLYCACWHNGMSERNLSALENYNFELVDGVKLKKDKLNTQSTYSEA

## KDKPPR [NRP-1-targeting peptide]
NRP-1 [1]; ref 37
  affinity for NRP-1: affinity of the order of μM
NRP-1 [1]; ref 40
  affinity for NRP-1: micromolar affinity
NRP-1 [1]; ref 41
  binding affinity for NRP-1: around 1 μM

## O=C1OC2(c3cc(I)c(O)c(I)c3Oc3c2cc(I)c(O)c3I)c2c(Cl)c(Cl)c(Cl)c(Cl)c21 [RB, Rose Bengal]
[2]
  fluorescence quantum yield (Φf): 0.11
  singlet oxygen quantum yield (ΦΔ): 0.68
RB fluorescence lifetime
  RB fluorescence lifetime τf470: 0.63 ns
[3]; λexc = 351 nm or 273 nm (not told apart for RB)
  ^1O2 quantum yield ΦΔ351(Tb) or ΦΔ273(Gd): 0.00
[3]
  ^1O2 quantum yield ΦΔ558: 0.67
[4]
  Fluorescence quantum yield Φf558: 0.15

## Mal-K(RB)DKPPR [AGuIX Gd@Mal-K(RB)DKPPR, Mal-K(RB)DKPPR conjugated to thiolated AGuIX Gd NPs by thiol-maleimide click chemistry]
Zeta potential
  Zeta potential (ζ): −10 mV
Ln luminescence lifetime
  Ln luminescence lifetime τL (Gd): 345 µs
RB fluorescence lifetime; [7]
  RB fluorescence lifetime τf470: 3.8 ns
[3]; λexc = 273 nm
  ^1O2 quantum yield ΦΔ273(Gd): 0.35
[3]; [7]
  ^1O2 quantum yield ΦΔ558: 0.67
U-251 MG cells
  Cell survival (clonogenic capability relative to control): 0.63
[5]
  percentage of population P1: 95%
  percentage of population P2: 5%
[5]; Tris 10 mM and NaCl 125 mM
  Size, population P1: 2.9 nm
  Size, population P2: 14.0 nm
[4]
  Fluorescence quantum yield Φf558: 0.11

## K(RB)DKPPR [NRP-1-targeting peptide coupled to RB]
NRP-1 [6]
  affinity for NRP-1: order of nM; also recorded: affinity in the nM range

From PMC12114895, “Lanthanides-Based Nanoparticles Conjugated with Rose Bengal for FRET-Mediated X-Ray-Induced PDT” (Pharmaceuticals, 2025)
